Assay results published in ChEMBL document CHEMBL1201862, “PubChem BioAssay data set” (2004).
Active and inactive are the calls of the source.

Columns and labels:
HEK293 = assay: cells; assay type: functional, cell-based; details: Homo sapiens
[1] = biological target: T1, Nuclear receptor subfamily 0 group B member 1 (Homo sapiens, UniProt P51843); assay: Luminescence-based cell-based high throughput dose response assay for inhibitors of the orphan nuclear receptor subfamily 0, group B, member 1 (DAX1; NR0B1). [Related pubchem assays (depositor defined):AID504766, AID504790]; assay type: functional
T1 sequence (P51843 whole entry): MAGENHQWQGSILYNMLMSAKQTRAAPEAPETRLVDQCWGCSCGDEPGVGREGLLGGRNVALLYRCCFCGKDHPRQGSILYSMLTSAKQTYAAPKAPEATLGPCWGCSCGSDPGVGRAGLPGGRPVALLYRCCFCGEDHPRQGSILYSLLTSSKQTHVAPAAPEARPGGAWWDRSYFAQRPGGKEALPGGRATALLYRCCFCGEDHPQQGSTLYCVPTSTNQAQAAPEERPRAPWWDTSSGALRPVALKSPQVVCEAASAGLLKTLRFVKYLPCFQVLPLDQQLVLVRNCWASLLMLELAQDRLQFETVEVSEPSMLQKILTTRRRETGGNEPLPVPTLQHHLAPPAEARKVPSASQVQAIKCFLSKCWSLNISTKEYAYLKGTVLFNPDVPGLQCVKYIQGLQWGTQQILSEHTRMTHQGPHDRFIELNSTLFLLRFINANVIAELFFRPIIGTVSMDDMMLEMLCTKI

[2] = A549 cell cytotoxicity, dose response, cytotoxicity control, plate reader, cherry-pick, antagonist series (AID 743412); assay type: functional, cell-based
[3] = blockers of bursicon-stimulated LGR2 cAMP reporter – cell-based, HEK293, CRE-luciferase reporter, cherry pick, set 2, dose response (AID 743343); assay type: functional;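 further: transfected cells were stimulated with diluted bursicon conditioned medium after compound addition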
[4] = blockade of melanocortin 4 receptor signaling – cell-based, plate reader, cherry pick, counter-screen for LGR2 antagonist project, dose response (AID 743444); assay type: functional;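 further: transfected HEK 293 cells stimulated with alpha-MSH peptide; potency of inhibitors of the alpha-MSH evoked signal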
Beta-galactosidase = Beta-galactosidase (Escherichia coli, UniProt Q8VNN2); assay: PubChem AID 485352; assay type: functional
[5] = biological target: T2, Type-1 angiotensin II receptor (Homo sapiens, UniProt P30556); assay: antagonism of angiotensin II type 1 receptor – cell-based, uHTS hits, selectivity assay for APJ receptor antagonist project, dose response (AID 463214); assay type: functional;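 further: antagonist potency against angiotensin II stimulated AT1 response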
T2 sequence (P30556 whole entry): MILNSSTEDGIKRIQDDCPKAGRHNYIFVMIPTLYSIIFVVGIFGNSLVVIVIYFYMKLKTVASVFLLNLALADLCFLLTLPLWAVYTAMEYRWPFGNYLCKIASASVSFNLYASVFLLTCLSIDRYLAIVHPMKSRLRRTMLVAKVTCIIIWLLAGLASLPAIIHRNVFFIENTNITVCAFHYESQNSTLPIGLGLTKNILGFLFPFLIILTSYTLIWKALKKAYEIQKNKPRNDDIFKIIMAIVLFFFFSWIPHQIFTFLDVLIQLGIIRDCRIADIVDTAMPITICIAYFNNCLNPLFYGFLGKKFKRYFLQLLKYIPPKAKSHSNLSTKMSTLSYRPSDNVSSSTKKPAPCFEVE

[6] = A Cell Based Secondary Assay To Explore Cytotoxicity of Compounds that Sensitize Mycobacterium Tuberculosis to Beta-Lactam Antibiotics.; assay type: functional
[7] = biological target: T3, Short transient receptor potential channel 4 (Mus musculus, UniProt Q9QUQ5); assay: calcium entry via TRPC4 opening agents – cell-based, HEK293 TRPC4/mu-opioid, Fluo-4 calcium, dose response (AID 434937); assay type: functional
T3 sequence (Q9QUQ5 whole entry): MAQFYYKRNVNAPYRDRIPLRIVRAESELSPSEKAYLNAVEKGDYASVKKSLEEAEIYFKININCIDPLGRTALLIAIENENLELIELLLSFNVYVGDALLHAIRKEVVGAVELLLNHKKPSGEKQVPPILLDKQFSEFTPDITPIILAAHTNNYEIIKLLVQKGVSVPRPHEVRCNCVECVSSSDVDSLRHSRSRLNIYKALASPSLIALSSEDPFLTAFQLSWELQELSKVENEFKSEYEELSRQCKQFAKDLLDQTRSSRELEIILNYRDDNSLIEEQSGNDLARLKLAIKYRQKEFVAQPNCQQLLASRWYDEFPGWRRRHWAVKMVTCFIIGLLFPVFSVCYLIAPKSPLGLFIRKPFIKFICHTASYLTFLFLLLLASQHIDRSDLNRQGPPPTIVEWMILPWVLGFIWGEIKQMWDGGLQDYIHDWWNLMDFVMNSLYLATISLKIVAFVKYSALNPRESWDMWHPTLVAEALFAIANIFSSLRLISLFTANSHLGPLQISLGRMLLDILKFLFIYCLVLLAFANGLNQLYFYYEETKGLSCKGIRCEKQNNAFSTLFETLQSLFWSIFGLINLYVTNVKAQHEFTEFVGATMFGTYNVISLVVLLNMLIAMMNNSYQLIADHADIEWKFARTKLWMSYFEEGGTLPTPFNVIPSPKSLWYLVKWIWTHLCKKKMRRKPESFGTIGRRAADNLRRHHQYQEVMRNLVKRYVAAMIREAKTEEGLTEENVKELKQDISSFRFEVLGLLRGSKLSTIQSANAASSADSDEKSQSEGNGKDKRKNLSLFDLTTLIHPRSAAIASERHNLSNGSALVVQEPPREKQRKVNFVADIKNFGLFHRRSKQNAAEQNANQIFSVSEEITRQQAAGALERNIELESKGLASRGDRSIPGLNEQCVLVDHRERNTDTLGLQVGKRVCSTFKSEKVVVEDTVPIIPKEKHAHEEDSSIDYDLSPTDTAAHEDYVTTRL

[8] = biological target: Delta-type opioid receptor (Homo sapiens, UniProt P41143); assay: Counterscreen for agonists of heterodimerization of the mu 1 (OPRM1) and delta 1 (OPRD1) opioid receptors: Luminescence-based cell-based high throughput dose response assay to identify agonists of OPRD1 homodimerization. [Related pubchem assays (depositor defined):AID504326, AID504355, AID504692, AID504904, AID504905]; assay type: functional
Mu-type opioid receptor = Mu-type opioid receptor (Homo sapiens, UniProt P35372); assay: Counterscreen for agonists of heterodimerization of the mu 1 (OPRM1) and delta 1 (OPRD1) opioid receptors: Luminescence-based cell-based high throughput dose response assay to identify agonists of OPRM1 homodimerization.; assay type: functional;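 further: U2OS cells expressing OPRM1 and beta-arrestin as split beta-galactosidase partners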
[9] = biological target: 5-hydroxytryptamine receptor 5A (Homo sapiens, UniProt P47898); assay: Counterscreen for agonists of OPRM1-OPRD1 heterodimerization: luminescence-based cell-based high throughput dose response assay to identify agonists of 5-hydroxytryptamine (serotonin) 5A receptor (HTR5A). [Related pubchem assays (depositor defined):AID504326, AID504355, AID504692, AID504904, AID504905]; assay type: functional
[10] = biological target: T4, DNA repair protein RAD52 homolog (Homo sapiens, UniProt P43351); assay type: functional, biochemical
T4 sequence (P43351 whole entry): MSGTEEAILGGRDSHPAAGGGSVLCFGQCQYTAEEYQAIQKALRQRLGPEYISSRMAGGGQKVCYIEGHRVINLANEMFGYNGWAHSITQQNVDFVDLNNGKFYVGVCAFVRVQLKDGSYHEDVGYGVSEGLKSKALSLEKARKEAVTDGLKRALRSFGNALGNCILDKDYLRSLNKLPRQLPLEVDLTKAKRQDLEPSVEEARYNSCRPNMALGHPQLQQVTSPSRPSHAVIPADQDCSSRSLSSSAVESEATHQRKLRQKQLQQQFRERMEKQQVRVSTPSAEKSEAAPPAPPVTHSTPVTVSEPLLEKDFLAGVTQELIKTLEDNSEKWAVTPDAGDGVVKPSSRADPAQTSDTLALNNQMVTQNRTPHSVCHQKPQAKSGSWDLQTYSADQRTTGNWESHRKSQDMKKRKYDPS

Cytochrome P450 2C9 = Cytochrome P450 2C9 (Homo sapiens, UniProt P11712)
[11] = biological target: T5, RNA-binding protein pos-1 (Caenorhabditis elegans, UniProt G5EF15); assay: disruptors of C. elegans POS-1 RNA interaction – biochemical, fluorescence polarization, dose response (AID 1964);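 further: purified POS-1 fused to maltose binding protein made in E. coli; potency of compounds blocking POS-1 binding to fluorescent RNA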
T5 sequence (G5EF15 whole entry): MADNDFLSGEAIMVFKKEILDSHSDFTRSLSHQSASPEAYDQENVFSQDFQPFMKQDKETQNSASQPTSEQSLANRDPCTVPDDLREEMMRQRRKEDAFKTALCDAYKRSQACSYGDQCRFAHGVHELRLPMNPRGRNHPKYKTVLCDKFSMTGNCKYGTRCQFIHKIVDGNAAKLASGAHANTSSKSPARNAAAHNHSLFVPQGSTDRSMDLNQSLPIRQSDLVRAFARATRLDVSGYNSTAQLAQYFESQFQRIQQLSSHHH

[12] = biological target: T6, Zinc finger protein mex-5 (Caenorhabditis elegans, UniProt Q9XUB2); assay: potency of MEX-5 RNA-binding blockers – biochemical, C. elegans, fluorescence polarization, dose response (AID 1960)
T6 sequence (Q9XUB2 whole entry): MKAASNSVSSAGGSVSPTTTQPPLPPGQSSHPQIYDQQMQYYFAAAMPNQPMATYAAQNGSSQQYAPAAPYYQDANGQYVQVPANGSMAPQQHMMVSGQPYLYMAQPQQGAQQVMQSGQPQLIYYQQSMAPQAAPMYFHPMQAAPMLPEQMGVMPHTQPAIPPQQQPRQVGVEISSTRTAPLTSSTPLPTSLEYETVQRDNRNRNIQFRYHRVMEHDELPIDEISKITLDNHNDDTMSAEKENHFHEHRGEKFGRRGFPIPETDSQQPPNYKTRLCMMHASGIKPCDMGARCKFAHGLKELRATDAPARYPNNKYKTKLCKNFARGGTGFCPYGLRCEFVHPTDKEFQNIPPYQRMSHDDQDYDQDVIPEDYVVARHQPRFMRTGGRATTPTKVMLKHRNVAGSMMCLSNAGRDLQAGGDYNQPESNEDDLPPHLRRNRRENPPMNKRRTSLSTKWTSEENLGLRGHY

[13] = biological target: T7, Endoribonuclease toxin MazF (Escherichia coli K-12, UniProt P0AE70); assay: activation of MazEF endoribonuclease cleavage – biochemical, fluorescence, single-stranded RNA substrate, uHTS hits, dose response (AID 588481); assay type: functional
T7 sequence (P0AE70 whole entry): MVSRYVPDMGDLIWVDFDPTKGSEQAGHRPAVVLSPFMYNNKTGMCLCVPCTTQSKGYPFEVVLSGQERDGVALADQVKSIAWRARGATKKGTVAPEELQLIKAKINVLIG

[14] = biological target: T7, Endoribonuclease toxin MazF; assay: substrate-only fluorescence increase artefacts – biochemical, single-stranded RNase substrate, counter-screen for MazEF activator project, dose response (AID 588502); assay type: functional
[15] = biological target: T8, Corticotropin-releasing factor receptor 2/Corticotropin-releasing factor-binding protein (Homo sapiens, UniProt P24387+Q13324); assay: activators of CRF receptor 2 with binding protein – uHTS hits, confirmation (AID 602473); assay type: functional; details: read-out: EC50_Mean
T8 sequence (Q13324 whole entry): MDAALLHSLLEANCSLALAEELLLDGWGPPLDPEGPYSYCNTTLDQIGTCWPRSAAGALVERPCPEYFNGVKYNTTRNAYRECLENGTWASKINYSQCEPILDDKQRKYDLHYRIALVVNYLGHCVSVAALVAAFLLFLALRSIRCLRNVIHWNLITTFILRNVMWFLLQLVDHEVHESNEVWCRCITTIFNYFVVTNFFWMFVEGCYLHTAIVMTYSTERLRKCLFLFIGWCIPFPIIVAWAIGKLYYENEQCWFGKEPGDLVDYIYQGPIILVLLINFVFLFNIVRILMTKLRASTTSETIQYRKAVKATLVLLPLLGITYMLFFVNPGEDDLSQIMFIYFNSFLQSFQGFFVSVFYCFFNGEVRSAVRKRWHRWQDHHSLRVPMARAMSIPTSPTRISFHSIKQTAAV
T8 sequence (P24387 whole entry): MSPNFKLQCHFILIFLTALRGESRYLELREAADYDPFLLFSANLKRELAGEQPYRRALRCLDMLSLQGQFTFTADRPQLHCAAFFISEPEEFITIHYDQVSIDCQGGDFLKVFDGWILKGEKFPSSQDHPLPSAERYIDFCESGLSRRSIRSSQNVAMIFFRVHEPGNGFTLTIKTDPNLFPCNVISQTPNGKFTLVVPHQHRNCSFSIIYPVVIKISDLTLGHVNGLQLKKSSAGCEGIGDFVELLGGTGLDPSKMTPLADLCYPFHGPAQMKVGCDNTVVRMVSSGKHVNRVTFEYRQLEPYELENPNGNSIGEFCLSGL

Sequence of Beta-galactosidase (Q8VNN2 whole entry): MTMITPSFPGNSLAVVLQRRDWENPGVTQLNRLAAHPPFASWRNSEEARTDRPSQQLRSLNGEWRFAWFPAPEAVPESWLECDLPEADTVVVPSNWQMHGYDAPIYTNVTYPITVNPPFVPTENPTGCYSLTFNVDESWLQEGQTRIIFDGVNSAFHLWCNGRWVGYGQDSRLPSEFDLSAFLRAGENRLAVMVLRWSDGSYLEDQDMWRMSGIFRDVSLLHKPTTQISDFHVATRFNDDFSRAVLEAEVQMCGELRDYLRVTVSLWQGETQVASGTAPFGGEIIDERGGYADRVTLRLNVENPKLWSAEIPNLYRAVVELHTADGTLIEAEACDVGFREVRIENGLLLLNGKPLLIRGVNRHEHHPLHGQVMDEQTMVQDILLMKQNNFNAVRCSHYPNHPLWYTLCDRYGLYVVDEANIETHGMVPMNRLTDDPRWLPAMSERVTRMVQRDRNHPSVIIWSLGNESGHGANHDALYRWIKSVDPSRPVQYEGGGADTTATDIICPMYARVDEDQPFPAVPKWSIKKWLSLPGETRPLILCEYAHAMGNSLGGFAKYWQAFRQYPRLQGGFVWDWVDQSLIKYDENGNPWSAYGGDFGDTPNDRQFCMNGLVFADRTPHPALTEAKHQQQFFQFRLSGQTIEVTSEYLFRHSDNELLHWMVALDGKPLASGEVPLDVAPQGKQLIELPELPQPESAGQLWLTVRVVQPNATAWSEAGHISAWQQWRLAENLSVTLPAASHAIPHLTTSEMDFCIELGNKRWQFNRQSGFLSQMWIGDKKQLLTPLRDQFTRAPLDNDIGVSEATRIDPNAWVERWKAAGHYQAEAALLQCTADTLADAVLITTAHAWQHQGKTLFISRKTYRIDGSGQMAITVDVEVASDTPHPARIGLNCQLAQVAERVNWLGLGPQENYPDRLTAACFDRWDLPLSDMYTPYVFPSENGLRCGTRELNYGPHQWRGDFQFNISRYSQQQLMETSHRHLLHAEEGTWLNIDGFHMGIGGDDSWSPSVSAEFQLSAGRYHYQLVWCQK
Sequence of Mu-type opioid receptor (P35372 whole entry): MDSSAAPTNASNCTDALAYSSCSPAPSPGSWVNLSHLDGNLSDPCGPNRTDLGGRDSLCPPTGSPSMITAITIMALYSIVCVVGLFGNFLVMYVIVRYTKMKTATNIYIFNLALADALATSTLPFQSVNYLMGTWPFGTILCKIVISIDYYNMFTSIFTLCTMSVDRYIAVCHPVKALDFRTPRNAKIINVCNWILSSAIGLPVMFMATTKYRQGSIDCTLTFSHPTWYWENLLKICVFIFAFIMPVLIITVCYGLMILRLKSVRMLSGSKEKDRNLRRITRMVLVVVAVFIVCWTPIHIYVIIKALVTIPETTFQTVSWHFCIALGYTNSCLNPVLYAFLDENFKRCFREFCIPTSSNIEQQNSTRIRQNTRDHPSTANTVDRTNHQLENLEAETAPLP
Sequence of Cytochrome P450 2C9 (P11712 whole entry, the tested form may be a part): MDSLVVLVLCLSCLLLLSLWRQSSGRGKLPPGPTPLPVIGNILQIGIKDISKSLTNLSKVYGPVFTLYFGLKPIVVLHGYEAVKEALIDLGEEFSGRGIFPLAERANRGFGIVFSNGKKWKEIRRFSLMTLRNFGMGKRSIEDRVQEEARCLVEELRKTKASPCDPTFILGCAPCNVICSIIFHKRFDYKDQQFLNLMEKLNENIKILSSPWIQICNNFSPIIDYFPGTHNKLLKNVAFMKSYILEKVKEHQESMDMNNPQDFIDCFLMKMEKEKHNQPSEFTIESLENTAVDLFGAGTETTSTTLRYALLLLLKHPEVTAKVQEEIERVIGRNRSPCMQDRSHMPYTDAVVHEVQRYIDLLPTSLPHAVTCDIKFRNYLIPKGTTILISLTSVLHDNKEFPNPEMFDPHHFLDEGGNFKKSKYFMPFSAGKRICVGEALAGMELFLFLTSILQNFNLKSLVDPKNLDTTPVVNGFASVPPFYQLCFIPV
Sequence of Delta-type opioid receptor (P41143 whole entry): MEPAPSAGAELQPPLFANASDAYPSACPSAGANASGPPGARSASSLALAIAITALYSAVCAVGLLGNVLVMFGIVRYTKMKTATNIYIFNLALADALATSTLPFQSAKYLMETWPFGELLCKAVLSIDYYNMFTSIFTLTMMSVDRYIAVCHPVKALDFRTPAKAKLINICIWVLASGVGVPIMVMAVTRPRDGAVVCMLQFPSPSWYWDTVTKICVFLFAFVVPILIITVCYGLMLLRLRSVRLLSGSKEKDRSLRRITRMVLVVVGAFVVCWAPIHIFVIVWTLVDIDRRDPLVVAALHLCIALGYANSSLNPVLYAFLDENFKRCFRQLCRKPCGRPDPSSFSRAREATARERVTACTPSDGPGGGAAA
Sequence of 5-hydroxytryptamine receptor 5A (P47898 whole entry): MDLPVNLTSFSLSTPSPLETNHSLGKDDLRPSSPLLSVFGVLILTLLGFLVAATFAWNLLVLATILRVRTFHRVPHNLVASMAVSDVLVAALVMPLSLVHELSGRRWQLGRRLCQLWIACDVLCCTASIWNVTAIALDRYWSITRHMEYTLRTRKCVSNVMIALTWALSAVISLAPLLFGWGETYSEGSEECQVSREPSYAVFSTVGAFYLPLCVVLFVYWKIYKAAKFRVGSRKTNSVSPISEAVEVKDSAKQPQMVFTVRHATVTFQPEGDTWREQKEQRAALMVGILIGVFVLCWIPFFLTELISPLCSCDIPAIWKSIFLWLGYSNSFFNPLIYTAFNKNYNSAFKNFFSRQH

Nc1nccc(-c2cc(-c3ccc(Cl)cc3Cl)no2)n1
IC50 (HEK293): > 67.6 µM (inactive) | IC50 [1]: > 67.6 µM (inactive) | AC50 [2]: > 52 µM (inactive) | AC50 [3]: 8.96 µM (active) | AC50 [4]: 8.35 µM (active)

COC(=O)CSc1[nH]c2ccc(Br)cc2c1[N+](=O)[O-]
EC50 (Beta-galactosidase): > 40 µM (inactive) | IC50 [5]: > 40 µM (not active)

CN1CCN(c2ccc(NC(=O)c3ccc(-c4cccc([N+](=O)[O-])c4)o3)cc2)CC1
CC50 [6]: 29 µM (active) | EC50 [7]: 0.299 µM (active) | EC50 [8]: 70 µM (inactive) | EC50 (Mu-type opioid receptor): > 30.8 µM (inactive) | EC50 [9]: > 92.5 µM (inactive) | AC50 [10]: 10.3 µM (active)

O=C(COC(=O)c1cccnc1)c1ccc(Cl)c(Cl)c1
EC50 (Beta-galactosidase): > 40 µM (inactive) | IC50 [5]: 36.8 µM (not active) | AC50 (Cytochrome P450 2C9): 7.94 µM (inconclusive)

Cn1c(N)c(C(=O)COC(=O)CSc2ccccc2)c(=O)n(C)c1=O
IC50 (HEK293): > 67.6 µM (inactive) | IC50 [1]: > 67.6 µM (inactive)

Oc1[nH]c2ccccc2c1N=Nc1cccc(Cl)c1
EC50 [11]: 125 µM (active) | EC50 [12]: 45.4 µM (active) | EC50 [13]: > 99 µM (inactive) | EC50 [14]: > 99 µM (inactive)

NC(=O)c1c(NC(=O)c2ccccc2)sc2c1CCN(Cc1ccccc1)C2
EC50 [11]: > 300 µM (not active) | EC50 [12]: > 300 µM (inconclusive) | EC50 [13]: > 99 µM (inactive) | EC50 [14]: > 99 µM (inactive) | EC50 [15]: 12.6 µM (active)

COc1ccc(OC)c(C(C)NC(=O)c2ccc(Br)cc2)c1 (centres undefined)
IC50 (HEK293): > 67.6 µM (inactive) | IC50 [1]: > 67.6 µM (inactive)
